Biological target: MLL1-WDR5 protein-protein interaction (Homo sapiens (Human), UniProt P61964)
Assay: WDR5 TR-FRET assay (MLL1-WDR5 PPI inhibition)
Format: binding
Settings: 5 nM WDR5 protein, 10 nM peptide, read-out: IC50 (nM), MLL1-WDR5 PPI inhibitory activity
Description: WDR5 TR-FRET Assay Procedure: Stock compounds were transferred to the assay plate by Echo Liquid Handler. […] Stock compounds were incubated with WDR5 protein for 30 min at room temperature. Plates were covered, protected from light and incubated for 60 min at room temperature, after adding the peptide and Tb-Ab. EnVision Multimode Plate Reader (PerkinElmer) was used for the TR-FRET assay with excitation wavelength at 340 nm and emission wavelength at 495 and 520 nm. The ratio of the 520/495 wavelengths were used to assess the degree of the FRET signal. IC50 was calculated by fitting the inhibition data using XLfit software to sigmoidal dose-response model.

Compared with `COc1cc(C(F)(F)F)c(C(=O)Nc2cc(-n3cc(C(=O)NC4CCN(C)CC4)nn3)c(F)cc2N2C[C@@H](C)N(C)[C@@H](C)C2)cn1` [Example 54, N-(4-fluoro-5-(4-((1-methylpiperidin-4-yl)carbamoyl)-1H-1,2,3-triazol-1-yl)-2-((3S,5R)-3,4,5-trimethylpiperazin-1-yl)phenyl)-6-methoxy-4-(trifluoromethyl)nicotinamide], `COc1cc(C(F)(F)F)c(C(=O)Nc2cc(-n3cc(C(=O)NCCCN4CCOCC4)nn3)c(F)cc2N2C[C@@H](C)N(C)[C@@H](C)C2)cn1` [Example 55] is 4.6-fold higher in IC50: 618 nM for the first, 2820 nM for the second. The first is the more potent here.

Compared with `CN1CCN(c2ccc(-n3cc(C(=O)NCCCN4CCOCC4)nn3)cc2NC(=O)c2ccc(Cl)nc2C(F)(F)F)CC1` [Example 37, 6-chloro-N-(2-(4-methylpiperazin-1-yl)-5-(4-((3-morpholinopropyl)carbamoyl)-1H-1,2,3-triazol-1-yl)phenyl)-2-(trifluoromethyl)nicotinamide], `CN1CCN(c2ccc(-n3cc(C(=O)NCCCN4CCOCC4)nn3)cc2NC(=O)c2ccc(C#N)nc2C(F)(F)F)CC1` [Example 39, 6-cyano-N-[2-(4-methylpiperazin-1-yl)-5-[4-(3-morpholinopropylcarbamoyl)triazol-1-yl]phenyl]-2-(trifluoromethyl)pyridine-3-carboxamide] is 1.7-fold lower in IC50: 1960 nM for the first, 1150 nM for the second. The second is the more potent here.

`CN1CCN(c2ccc(-n3cc(C(=O)NCCCN4CCOCC4)nn3)cc2NC(=O)c2cnc(N)cc2C(F)(F)F)CC1` [Example 18, 6-amino-N-(2-(4-methylpiperazin-1-yl)-5-(4-((3-morpholinopropyl)carbamoyl)-1H-1,2,3-triazol-1-yl)phenyl)-4-(trifluoromethyl)nicotinamide] and `Cc1cc(C(F)(F)F)c(C(=O)Nc2cc(-n3cc(C(=O)NCCCN4CCOCC4)nn3)ccc2N2CCN(C)CC2)cn1` [Example 12, 6-methyl-N-(2-(4-methylpiperazin-1-yl)-5-(4-((3-morpholinopropyl)carbamoyl)-1H-1,2,3-triazol-1-yl)phenyl)-4-(trifluoromethyl)nicotinamide] cannot be ordered by IC50: > 10000 nM for the first, > 10000 nM for the second.

`CCOc1ncc(C(=O)Nc2cc(-n3cc(C(=O)NCCCN4CCOCC4)nn3)ccc2N2CCN(C)CC2)c(C(F)(F)F)n1` [Example 29, 2-ethoxy-N-(2-(4-methylpiperazin-1-yl)-5-(4-((3-morpholinopropyl)carbamoyl)-1H-1,2,3-triazol-1-yl)phenyl)-4-(trifluoromethyl)pyrimidine-5-carboxamide] and `CN1CCN(c2ccc(-n3cc(C(=O)NCCCN4CCOCC4)nn3)cc2NC(=O)c2cnc([S+](C)[O-])nc2C(F)(F)F)CC1` (stereo not drawn) [Example 28, N-(2-(4-methylpiperazin-1-yl)-5-(4-((3-morpholinopropyl)carbamoyl)-1H-1,2,3-triazol-1-yl)phenyl)-2-(methylsulfinyl)-4-(trifluoromethyl)pyrimidine-5-carboxamide] cannot be ordered by IC50: > 10000 nM for the first, > 10000 nM for the second.

`COc1nc(SC)ncc1C(=O)Nc1cc(-n2cc(C(=O)NCCCN3CCOCC3)nn2)ccc1N1CCN(C)CC1` [Example 30, 4-methoxy-N-(2-(4-methylpiperazin-1-yl)-5-(4-((3-morpholinopropyl)carbamoyl)-1H-1,2,3-triazol-1-yl)phenyl)-2-(methylthio)pyrimidine-5-carboxamide] and `Cc1cc(N)ncc1C(=O)Nc1cc(-n2cc(C(=O)NCCCN3CCOCC3)nn2)ccc1N1CCN(C)CC1` [Example 24, 6-amino-4-methyl-N-(2-(4-methylpiperazin-1-yl)-5-(4-((3-morpholinopropyl)carbamoyl)-1H-1,2,3-triazol-1-yl)phenyl)nicotinamide] cannot be ordered by IC50: > 10000 nM for the first, > 10000 nM for the second.

Compared with `CCN(CC)C(=O)c1cn(-c2cc(NC(=O)c3cnc(F)cc3C(F)(F)F)c(N3C[C@@H](C)N(C)[C@@H](C)C3)cc2F)nn1` [Example 53, N-(5-(4-(diethylcarbamoyl)-1H-1,2,3-triazol-1-yl)-4-fluoro-2-((3S,5R)-3,4,5-trimethylpiperazin-1-yl)phenyl)-6-fluoro-4-(trifluoromethyl)nicotinamide], `C[C@H]1CN(c2cc(F)c(-n3cc(C(=O)N4CCN(C)CC4)nn3)cc2NC(=O)c2cnc(Cl)cc2C(F)(F)F)C[C@H](C)N1C` [HYBI-284] is 2.4-fold higher in IC50: 535 nM for the first, 1270 nM for the second.

`CN1CCN(c2ccc(-n3cc(C(=O)NCCCN4CCOCC4)nn3)cc2NC(=O)c2cnc(Cl)cc2N(C)C)CC1` [Example 23, 6-chloro-4-(dimethylamino)-N-[2-(4-methylpiperazin-1-yl)-5-[4-(3-morpholinopropylcarbamoyl)triazol-1-yl]phenyl]pyridine-3-carboxamide] and `CN1CCN(c2ccc(-n3cc(C(=O)NCCCN4CCOCC4)nn3)cc2NC(=O)c2cnc(Cl)cc2Cl)CC1` [Example 19, 4,6-dichloro-N-[2-(4-methylpiperazin-1-yl)-5-[4-(3-morpholinopropylcarbamoyl)triazol-1-yl]phenyl]pyridine-3-carboxamide] cannot be ordered by IC50: > 10000 nM for the first, > 10000 nM for the second.

First: CN1CCN(c2ccc(-n3cc(C(=O)NCCCN4CCOCC4)nn3)cc2NC(=O)c2c[nH]c(=O)cc2C(F)(F)F)CC1 [Example 4]
Second: COc1cc(C(F)(F)F)c(C(=O)Nc2cc(-n3cc(C(=O)NCCCN4CCOCC4)nn3)ccc2N2CCN(C)CC2)cn1 [Example 16, 6-methoxy-N-(2-(4-methylpiperazin-1-yl)-5-(4-((3-morpholinopropyl)carbamoyl)-1H-1,2,3-triazol-1-yl)phenyl)-4-(trifluoromethyl)nicotinamide]
The IC50 of the first is lower: 51.3 nM for the first, > 10000 nM for the second. The first is the more potent here.

`CN1CCN(c2ccc(-n3cc(C(=O)NCCCN4CCOCC4)nn3)cc2NC(=O)c2ccc(S(C)(=O)=O)nc2C(F)(F)F)CC1` [Example 44, N-[2-(4-methylpiperazin-1-yl)-5-[4-(3-morpholinopropylcarbamoyl)triazol-1-yl]phenyl]-6-methylsulfonyl-2-(trifluoromethyl)pyridine-3-carboxamide] and `Cc1cc(C(F)(F)F)ncc1C(=O)Nc1cc(-n2cc(C(=O)NCCCN3CCOCC3)nn2)ccc1N1CCN(C)CC1` [Example 31, 4-methyl-N-(2-(4-methylpiperazin-1-yl)-5-(4-((3-morpholinopropyl)carbamoyl)-1H-1,2,3-triazol-1-yl)phenyl)-6-(trifluoromethyl)nicotinamide] cannot be ordered by IC50: > 10000 nM for the first, > 10000 nM for the second.

First: CN1CCN(c2ccc(-n3cc(C(=O)NCCCN4CCOCC4)nn3)cc2NC(=O)c2cc(C(F)(F)F)cc(C(F)(F)F)c2)CC1 [Example 47, 1-(3-(3,5-bis(trifluoromethyl)benzamido)-4-(4-methylpiperazin-1-yl)phenyl)-N-(3-morpholinopropyl)-1H-1,2,3-triazole-4-carboxamide]
Second: CN1CCN(c2ccc(-n3cc(C(=O)NCCCN4CCOCC4)nn3)cc2NC(=O)c2cnc(C#N)cc2C(F)(F)F)CC1 [Example 13, 6-cyano-N-[2-(4-methylpiperazin-1-yl)-5-[4-(3-morpholinopropylcarbamoyl)triazol-1-yl]phenyl]-4-(trifluoromethyl)pyridine-3-carboxamide]
The IC50 of the first is lower: 3520 nM for the first, > 10000 nM for the second.

`COc1ccc(CNc2ccc(C(=O)Nc3cc(-n4cc(C(=O)NCCCN5CCOCC5)nn4)ccc3N3CCN(C)CC3)c(C(F)(F)F)n2)cc1` [Example 42, 6-((4-methoxybenzyl)amino)-N-(2-(4-methylpiperazin-1-yl)-5-(4-((3-morpholinopropyl)carbamoyl)-1H-1,2,3-triazol-1-yl)phenyl)-2-(trifluoromethyl)nicotinamide] and `Cc1cc(F)ncc1C(=O)Nc1cc(-n2cc(C(=O)NCCCN3CCOCC3)nn2)ccc1N1CCN(C)CC1` [Example 25, 6-fluoro-4-methyl-N-(2-(4-methylpiperazin-1-yl)-5-(4-((3-morpholinopropyl)carbamoyl)-1H-1,2,3-triazol-1-yl)phenyl)nicotinamide] cannot be ordered by IC50: > 10000 nM for the first, > 10000 nM for the second.

`COc1cnc(C(=O)Nc2cc(-n3cc(C(=O)NCCCN4CCOCC4)nn3)ccc2N2CCN(C)CC2)c(Cl)n1` [Example 35, 3-chloro-5-methoxy-N-(2-(4-methylpiperazin-1-yl)-5-(4-((3-morpholinopropyl)carbamoyl)-1H-1,2,3-triazol-1-yl)phenyl)pyrazine-2-carboxamide] and `CN1CCN(c2ccc(-n3cc(C(=O)NCCCN4CCOCC4)nn3)cc2NC(=O)c2nnc(Cl)cc2N)CC1` [Example 33, 4-amino-6-chloro-N-(2-(4-methylpiperazin-1-yl)-5-(4-((3-morpholinopropyl)carbamoyl)-1H-1,2,3-triazol-1-yl)phenyl)pyridazine-3-carboxamide] cannot be ordered by IC50: > 10000 nM for the first, > 10000 nM for the second.

Going from `Cc1c(Cl)ncc(C(=O)Nc2cc(-n3cc(C(=O)NCCCN4CCOCC4)nn3)c(F)cc2N2C[C@@H](C)N(C)[C@@H](C)C2)c1Cl` [Example 59, 4,6-dichloro-N-[4-fluoro-5-[4-(3-morpholinopropylcarbamoyl)triazol-1-yl]-2-[(3R,5S)-3,4,5-trimethylpiperazin-1-yl]phenyl]-5-methyl-pyridine-3-carboxamide] to `C[C@@H]1CN(c2cc(F)c(-n3cc(C(=O)N4CCN(C)CC4)nn3)cc2NC(=O)c2cnc(Cl)cc2C(F)(F)F)C[C@H](C)N1C` [Example 51, 6-chloro-N-(4-fluoro-5-(4-(4-methylpiperazine-1-carbonyl)-1H-1,2,3-triazol-1-yl)-2-((3S,5R)-3,4,5-trimethylpiperazin-1-yl)phenyl)-4-(trifluoromethyl)nicotinamide], the IC50 falls from > 10000 nM to 326 nM. The second is the more potent here.

In the case of `CN1CCN(c2ccc(-n3cc(C(=O)NCCCN4CCOCC4)nn3)cc2NC(=O)c2ncc(N)cn2)CC1` [HYBI-267, 5-amino-N-(2-(4-methylpiperazin-1-yl)-5-(4-((3-morpholinopropyl)carbamoyl)-1H-1,2,3-triazol-1-yl)phenyl)pyrimidine-2-carboxamide], the IC50 is reported as > 10000 nM.
